Source: patent US20260224588A1, “BENZODIAZEPINONE-DERIVED INHIBITORS OF EGFR AND HER2” (The Research Foundation for the State University of New York, priority 2023, published 2026)
“Also recorded” adds a separate entry of the source.

Tests used:
ABL1-nonphosphorylated = target: T1, ABL1-nonphosphorylated (Homo sapiens, UniProt P00519); assay: KINOMEscan; type: binding; conditions: 1 μM of compound 4; read-out: POC
T1 construct: purchased Eurofins DiscoverX Corporation

[1] = target: T2, ABL1(E255K)-phosphorylated (Homo sapiens, UniProt P00519, E255K); assay: KINOMEscan; type: binding; conditions: 1 μM of compound 4; read-out: POC
T2 construct: purchased Eurofins DiscoverX Corporation

TSSK1B = target: T3, TSSK1B (Homo sapiens, UniProt Q9BXA7); assay: KINOMEscan; type: binding; conditions: 1 μM of compound 4; read-out: POC
T3 construct: purchased Eurofins DiscoverX Corporation

PRKR = PRKR (Homo sapiens, UniProt P19525); assay: KINOMEscan; type: binding; conditions: 1 μM of compound 4; read-out: POC
WEE1 = target: T4, WEE1 (Homo sapiens, UniProt P30291); assay: KINOMEscan; type: binding; conditions: 1 μM of compound 4; read-out: POC
T4 construct: purchased Eurofins DiscoverX

FLT3-autoinhibited = target: T5, FLT3-autoinhibited (Homo sapiens, UniProt P36888); assay: KINOMEscan; type: binding; conditions: 1 μM of compound 4; read-out: POC
T5 construct: purchased Eurofins DiscoverX Corporation
T5 sequence (P36888 564-993 limits assumed): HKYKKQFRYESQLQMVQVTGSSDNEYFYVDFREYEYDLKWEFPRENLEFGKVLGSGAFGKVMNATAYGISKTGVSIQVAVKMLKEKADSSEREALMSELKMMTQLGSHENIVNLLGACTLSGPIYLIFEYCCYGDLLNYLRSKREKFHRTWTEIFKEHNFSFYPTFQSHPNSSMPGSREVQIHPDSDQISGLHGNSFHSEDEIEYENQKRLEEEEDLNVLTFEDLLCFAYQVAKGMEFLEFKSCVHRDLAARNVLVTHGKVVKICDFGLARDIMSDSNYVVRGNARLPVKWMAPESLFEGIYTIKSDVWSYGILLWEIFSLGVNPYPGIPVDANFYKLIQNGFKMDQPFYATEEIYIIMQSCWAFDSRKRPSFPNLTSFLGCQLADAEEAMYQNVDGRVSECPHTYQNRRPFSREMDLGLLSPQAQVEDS

CAMK1G = CAMK1G (Homo sapiens, UniProt Q96NX5); assay: KINOMEscan; type: binding; conditions: 1 μM of compound 4; read-out: POC
Chain of CAMK1G (Q96NX5 whole entry): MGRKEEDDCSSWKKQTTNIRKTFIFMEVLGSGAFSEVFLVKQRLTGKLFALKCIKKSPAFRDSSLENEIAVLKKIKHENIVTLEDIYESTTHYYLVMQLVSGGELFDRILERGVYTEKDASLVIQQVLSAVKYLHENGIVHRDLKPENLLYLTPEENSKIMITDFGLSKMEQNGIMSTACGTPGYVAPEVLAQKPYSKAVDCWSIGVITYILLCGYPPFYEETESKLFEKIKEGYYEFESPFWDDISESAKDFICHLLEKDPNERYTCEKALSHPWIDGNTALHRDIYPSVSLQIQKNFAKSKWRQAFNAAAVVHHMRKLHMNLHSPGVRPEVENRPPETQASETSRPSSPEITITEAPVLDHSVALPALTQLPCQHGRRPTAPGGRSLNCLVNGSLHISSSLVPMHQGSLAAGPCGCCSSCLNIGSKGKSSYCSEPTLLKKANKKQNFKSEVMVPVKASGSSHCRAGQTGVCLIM

GRK4 = target: T6, GRK4 (Homo sapiens, UniProt P32298); assay: KINOMEscan; type: binding; conditions: 1 μM of compound 4; read-out: POC
T6 construct: purchased Eurofins DiscoverX Corporation
T6 sequence (P32298 whole entry): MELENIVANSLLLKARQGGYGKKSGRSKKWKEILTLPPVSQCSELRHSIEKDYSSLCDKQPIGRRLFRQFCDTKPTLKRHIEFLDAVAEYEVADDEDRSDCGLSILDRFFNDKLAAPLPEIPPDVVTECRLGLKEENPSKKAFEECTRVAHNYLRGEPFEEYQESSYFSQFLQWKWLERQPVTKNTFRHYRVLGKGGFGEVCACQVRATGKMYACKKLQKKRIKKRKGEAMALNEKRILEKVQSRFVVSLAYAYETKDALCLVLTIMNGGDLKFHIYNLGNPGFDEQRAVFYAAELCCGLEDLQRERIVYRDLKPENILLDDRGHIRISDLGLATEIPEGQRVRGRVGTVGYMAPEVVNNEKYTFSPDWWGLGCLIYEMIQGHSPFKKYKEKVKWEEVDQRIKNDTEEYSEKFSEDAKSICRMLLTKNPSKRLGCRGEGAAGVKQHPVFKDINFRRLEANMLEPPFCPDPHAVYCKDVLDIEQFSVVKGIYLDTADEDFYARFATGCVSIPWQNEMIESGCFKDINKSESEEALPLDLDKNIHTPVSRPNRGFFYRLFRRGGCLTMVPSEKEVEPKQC

TRKC = target: T7, TRKC (Homo sapiens, UniProt Q16288); assay: KINOMEscan; type: binding; conditions: 1 μM of compound 4; read-out: POC
T7 construct: purchased Eurofins DiscoverX Corporation

[2] = target: T8, RSK4(Kin.Dom.1-N-terminal) (Homo sapiens, UniProt Q9UK32); assay: KINOMEscan; type: binding; conditions: 1 μM of compound 4; read-out: POC
T8 construct: RSK4(Kin.Dom.1-N-terminal); purchased Eurofins DiscoverX (KINOMEscan service)

KIT-autoinhibited = KIT-autoinhibited (Homo sapiens, UniProt P10721); assay: KINOMEscan; type: binding; conditions: 1 μM of compound 4; read-out: POC
TAOK2 = target: T9, TAOK2 (Homo sapiens, UniProt Q9UL54); assay: KINOMEscan; type: binding; conditions: 1 μM of compound 4; read-out: POC
T9 construct: purchased Eurofins DiscoverX Corporation

PCTK2 = target: T10, PCTK2 (Homo sapiens, UniProt Q00537); assay: KINOMEscan; type: binding; conditions: 1 μM of compound 4; read-out: POC
T10 construct: purchased Eurofins DiscoverX Corporation (KINOMEscan)
T10 sequence (Q00537 whole entry): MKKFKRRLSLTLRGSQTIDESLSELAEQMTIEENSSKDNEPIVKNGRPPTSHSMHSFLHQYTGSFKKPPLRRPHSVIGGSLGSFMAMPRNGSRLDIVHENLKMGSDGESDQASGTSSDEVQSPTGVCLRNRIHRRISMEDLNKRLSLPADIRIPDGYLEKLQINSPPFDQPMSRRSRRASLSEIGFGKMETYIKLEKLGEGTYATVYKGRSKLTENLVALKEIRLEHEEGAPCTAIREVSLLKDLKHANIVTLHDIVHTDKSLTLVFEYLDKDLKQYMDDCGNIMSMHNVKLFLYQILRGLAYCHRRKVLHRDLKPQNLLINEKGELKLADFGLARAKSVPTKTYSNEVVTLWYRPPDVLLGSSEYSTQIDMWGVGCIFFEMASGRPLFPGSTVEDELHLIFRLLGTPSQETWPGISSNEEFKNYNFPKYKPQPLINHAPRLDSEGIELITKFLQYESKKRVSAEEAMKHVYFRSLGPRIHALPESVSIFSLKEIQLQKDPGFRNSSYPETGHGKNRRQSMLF

NEK5 = NEK5 (Homo sapiens, UniProt Q6P3R8); assay: KINOMEscan; type: binding; conditions: 1 μM of compound 4; read-out: POC
IKK-alpha = IKK-alpha (Homo sapiens, UniProt O15111); assay: KINOMEscan; type: binding; conditions: 1 μM of compound 4; read-out: POC
SRC = target: T11, SRC (Homo sapiens, UniProt P12931); assay: KINOMEscan; type: binding; conditions: 1 μM of compound 4; read-out: POC
T11 construct: purchased Eurofins DiscoverX (KINOMEscan service)

TBK1 = target: T12, TBK1 (Homo sapiens, UniProt Q9UHD2); assay: KINOMEscan; type: binding; conditions: 1 μM of compound 4; read-out: POC
T12 construct: purchased Eurofins DiscoverX Corporation

[3] = tested on: EGFR (L858R/T790M) in H1975 lung cancer cells; assay: Western blotting of EGFR, ERK1/2 and AKT phosphorylation; type: cell-based, human; conditions: 6 hours treatment
Procedure: FIG. 2. […] All experiments performed after 6 hours treatments of inhibitors or DMSO controls and Western blots are representative of at least three independent experiments.
Western blotting. Cells were collected and lysed with lysis buffer (5M NaCl, 1M TRIS pH 8.0, 10% SDS, 10% Triton X-100 and a tablet of protease inhibitors) and processed for Western blotting analysis. Primary antibodies used; phospho-EGFR (Tyr1068; #2234, 1:1,000), EGFR (#4267; 1:1,000), phospho-AKT (Ser473; #4060, 1:1,000), AKT (#9272, 1:1,000), phospho-ERK1/2 (Thr202/Tyr204; #4370, 1:1,000), and ERK1/2 (#4695, 1:1,000) antibodies; were purchased from Cell Signaling Technology. Secondary Goat anti-rabbit IgG starbright blue 700 and Anti-tubulin hFAB Rhodamine Tubulin were purchased from Bio-rad.

MAP3K2 = MAP3K2 (Homo sapiens, UniProt Q9Y2U5); assay: KINOMEscan; type: binding; conditions: 1 μM of compound 4; read-out: POC
Chain of MAP3K2 (Q9Y2U5 whole entry): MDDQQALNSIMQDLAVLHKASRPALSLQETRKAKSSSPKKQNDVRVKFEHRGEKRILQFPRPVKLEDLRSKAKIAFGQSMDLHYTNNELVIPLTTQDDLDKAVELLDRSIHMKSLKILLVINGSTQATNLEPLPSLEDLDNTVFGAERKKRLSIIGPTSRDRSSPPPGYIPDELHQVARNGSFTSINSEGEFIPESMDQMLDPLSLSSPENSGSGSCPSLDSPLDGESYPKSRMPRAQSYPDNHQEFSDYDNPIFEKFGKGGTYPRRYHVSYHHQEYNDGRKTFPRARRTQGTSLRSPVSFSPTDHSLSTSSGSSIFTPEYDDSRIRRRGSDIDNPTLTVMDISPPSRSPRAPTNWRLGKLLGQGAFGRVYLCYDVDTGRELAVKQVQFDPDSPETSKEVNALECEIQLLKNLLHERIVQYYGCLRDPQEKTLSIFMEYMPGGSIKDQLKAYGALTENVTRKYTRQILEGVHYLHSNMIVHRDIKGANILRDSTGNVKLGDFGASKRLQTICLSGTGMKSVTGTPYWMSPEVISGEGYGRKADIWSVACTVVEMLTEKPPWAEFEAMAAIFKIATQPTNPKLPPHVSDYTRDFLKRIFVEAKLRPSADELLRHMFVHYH

RIPK4 = target: T13, RIPK4 (Homo sapiens, UniProt P57078); assay: KINOMEscan; type: binding; conditions: 1 μM of compound 4; read-out: POC
T13 construct: purchased Eurofins DiscoverX Corporation (KINOMEscan screening service)
T13 sequence (P57078 whole entry): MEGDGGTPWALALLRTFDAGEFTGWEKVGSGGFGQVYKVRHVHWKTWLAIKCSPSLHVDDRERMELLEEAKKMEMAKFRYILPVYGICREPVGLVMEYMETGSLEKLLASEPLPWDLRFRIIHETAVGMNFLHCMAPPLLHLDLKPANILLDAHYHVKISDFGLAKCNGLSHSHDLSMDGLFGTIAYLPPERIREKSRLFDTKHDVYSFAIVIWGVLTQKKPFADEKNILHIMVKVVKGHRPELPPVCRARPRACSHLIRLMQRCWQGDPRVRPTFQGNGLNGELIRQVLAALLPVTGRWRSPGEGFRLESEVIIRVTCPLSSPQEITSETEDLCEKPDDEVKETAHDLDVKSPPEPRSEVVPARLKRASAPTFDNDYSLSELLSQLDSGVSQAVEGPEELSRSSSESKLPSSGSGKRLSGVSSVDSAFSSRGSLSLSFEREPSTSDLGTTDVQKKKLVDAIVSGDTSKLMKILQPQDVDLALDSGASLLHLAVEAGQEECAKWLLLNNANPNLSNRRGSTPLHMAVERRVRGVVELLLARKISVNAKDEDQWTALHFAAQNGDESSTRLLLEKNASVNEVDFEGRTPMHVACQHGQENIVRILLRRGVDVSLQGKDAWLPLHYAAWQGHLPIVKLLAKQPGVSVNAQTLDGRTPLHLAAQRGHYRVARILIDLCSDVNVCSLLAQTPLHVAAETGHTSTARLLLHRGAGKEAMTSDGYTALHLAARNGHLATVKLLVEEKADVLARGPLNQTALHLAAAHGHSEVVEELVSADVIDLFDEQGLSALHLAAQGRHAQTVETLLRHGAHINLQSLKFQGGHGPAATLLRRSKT

EPHA2 = target: T14, EPHA2 (Homo sapiens, UniProt P29317); assay: KINOMEscan; type: binding; conditions: 1 μM of compound 4; read-out: POC
T14 construct: purchased Eurofins DiscoverX (KINOMEscan service)

DYRK1A = DYRK1A (Homo sapiens, UniProt Q13627); assay: KINOMEscan; type: binding; conditions: 1 μM of compound 4; read-out: POC
MKNK2 = MKNK2 (Homo sapiens, UniProt Q9HBH9); assay: KINOMEscan; type: binding; conditions: 1 μM of compound 4; read-out: POC
PRKCD = PRKCD (Homo sapiens, UniProt Q05655); assay: KINOMEscan; type: binding; conditions: 1 μM of compound 4; read-out: POC
PCTK1 = target: T15, PCTK1 (Homo sapiens, UniProt Q00536); assay: KINOMEscan; type: binding; conditions: 1 μM of compound 4; read-out: POC
T15 construct: purchased Eurofins DiscoverX Corporation (KINOMEscan)

ULK3 = target: T16, ULK3 (Homo sapiens, UniProt Q6PHR2); assay: KINOMEscan; type: binding; conditions: 1 μM of compound 4; read-out: POC
T16 construct: purchased Eurofins DiscoverX

[4] = target: T17, ABL1(T315I)-nonphosphorylated (Homo sapiens, UniProt P00519, T315I); assay: KINOMEscan; type: binding; conditions: 1 μM of compound 4; read-out: POC
T17 construct: purchased Eurofins DiscoverX Corporation

AURKB = AURKB (Homo sapiens, UniProt Q96GD4); assay: KINOMEscan; type: binding; conditions: 1 μM of compound 4; read-out: POC
Chain of AURKB (Q96GD4 whole entry): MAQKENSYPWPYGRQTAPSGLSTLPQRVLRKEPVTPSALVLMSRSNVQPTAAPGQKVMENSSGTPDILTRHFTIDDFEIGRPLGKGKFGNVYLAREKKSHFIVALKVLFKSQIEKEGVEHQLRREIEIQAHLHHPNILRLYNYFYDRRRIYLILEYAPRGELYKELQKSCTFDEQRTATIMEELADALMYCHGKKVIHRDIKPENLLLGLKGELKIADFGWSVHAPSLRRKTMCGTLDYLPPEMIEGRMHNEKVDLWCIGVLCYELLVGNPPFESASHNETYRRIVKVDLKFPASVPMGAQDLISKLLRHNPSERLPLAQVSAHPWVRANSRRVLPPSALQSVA

CDKL2 = CDKL2 (Homo sapiens, UniProt Q92772); assay: KINOMEscan; type: binding; conditions: 1 μM of compound 4; read-out: POC
Chain of CDKL2 (Q92772 whole entry): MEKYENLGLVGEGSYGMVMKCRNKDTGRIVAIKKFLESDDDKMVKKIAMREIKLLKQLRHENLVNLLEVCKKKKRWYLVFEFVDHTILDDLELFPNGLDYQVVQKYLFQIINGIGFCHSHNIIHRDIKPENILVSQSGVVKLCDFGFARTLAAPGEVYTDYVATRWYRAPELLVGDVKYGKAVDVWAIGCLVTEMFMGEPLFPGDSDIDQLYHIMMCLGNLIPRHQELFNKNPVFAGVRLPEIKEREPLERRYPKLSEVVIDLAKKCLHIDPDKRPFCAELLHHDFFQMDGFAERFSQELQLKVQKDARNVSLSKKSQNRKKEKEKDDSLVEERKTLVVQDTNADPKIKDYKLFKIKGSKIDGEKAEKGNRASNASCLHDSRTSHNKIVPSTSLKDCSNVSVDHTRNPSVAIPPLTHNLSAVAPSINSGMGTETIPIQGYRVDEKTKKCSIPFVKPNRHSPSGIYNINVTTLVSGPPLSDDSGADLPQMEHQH

PIK3CD = PIK3CD (Homo sapiens, UniProt O00329); assay: KINOMEscan; type: binding; conditions: 1 μM of compound 4; read-out: POC
WNK3 = target: T18, WNK3 (Homo sapiens, UniProt Q9BYP7); assay: KINOMEscan; type: binding; conditions: 1 μM of compound 4; read-out: POC
T18 construct: purchased Eurofins DiscoverX

ROCK1 = target: T19, ROCK1 (Homo sapiens, UniProt Q13464); assay: KINOMEscan; type: binding; conditions: 1 μM of compound 4; read-out: POC
T19 construct: purchased Eurofins DiscoverX Corporation (KINOMEscan screening service)

EPHA5 = target: T20, EPHA5 (Homo sapiens, UniProt P54756); assay: KINOMEscan; type: binding; conditions: 1 μM of compound 4; read-out: POC
T20 construct: purchased Eurofins DiscoverX (KINOMEscan service)

PDPK1 = target: T21, PDPK1 (Homo sapiens, UniProt O15530); assay: KINOMEscan; type: binding; conditions: 1 μM of compound 4; read-out: POC
T21 construct: purchased Eurofins DiscoverX Corporation (KINOMEscan)
T21 sequence (O15530 whole entry): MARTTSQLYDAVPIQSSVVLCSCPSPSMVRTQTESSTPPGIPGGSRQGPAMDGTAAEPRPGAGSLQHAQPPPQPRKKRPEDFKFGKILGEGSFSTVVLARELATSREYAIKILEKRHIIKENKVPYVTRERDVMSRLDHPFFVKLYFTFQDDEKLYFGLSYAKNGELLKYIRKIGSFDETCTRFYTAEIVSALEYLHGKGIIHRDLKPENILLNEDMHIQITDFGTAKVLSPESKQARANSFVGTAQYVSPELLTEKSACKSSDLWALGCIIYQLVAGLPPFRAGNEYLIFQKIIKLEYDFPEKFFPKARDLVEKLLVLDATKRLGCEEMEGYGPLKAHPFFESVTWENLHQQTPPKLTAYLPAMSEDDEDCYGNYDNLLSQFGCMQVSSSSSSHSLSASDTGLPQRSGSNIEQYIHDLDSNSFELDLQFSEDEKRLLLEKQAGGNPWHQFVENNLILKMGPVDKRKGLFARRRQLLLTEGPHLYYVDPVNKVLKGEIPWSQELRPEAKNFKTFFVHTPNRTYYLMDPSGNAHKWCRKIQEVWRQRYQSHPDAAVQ

With `C=CC(=O)Nc1ccc(OC)c(Nc2cc(-c3[nH]c(CC)nc3-c3cccc(NC(=O)c4cccc5c4NC(=O)c4ccccc4N5)c3)ccn2)c1` [Compound 4, N-(3-(5-(2-((5-Acrylamido-2-methoxyphenyl)amino)pyridin-4-yl)-2-ethyl-1H-imidazol-4-yl)phenyl)-11-oxo-10,11-dihydro-5H-dibenzo[b,e][1,4]diazepine-9-carboxamide] the remaining binding at 1 µM (ABL1-nonphosphorylated) was 100%, the remaining binding at 1 µM [1] was 65% and the remaining binding at 1 µM (TSSK1B) was 95%. For the same compound, the remaining binding at 1 µM (PRKR) was 87%, the remaining binding at 1 µM (WEE1) was 85% and the remaining binding at 1 µM (FLT3-autoinhibited) was 100%. The remaining binding at 1 µM (CAMK1G) was 100%, the remaining binding at 1 µM (GRK4) was 100% and the remaining binding at 1 µM (TRKC) was 87%. It also gave a remaining binding at 1 µM [2] of 100%, a remaining binding at 1 µM (KIT-autoinhibited) of 100% and a remaining binding at 1 µM (TAOK2) of 100%. For the same compound, the remaining binding at 1 µM (PCTK2) was 100%, the remaining binding at 1 µM (NEK5) was 100% and the remaining binding at 1 µM (IKK-alpha) was 100%. For the same compound, the remaining binding at 1 µM (SRC) was 73%, the remaining binding at 1 µM (TBK1) was 95% and the “EGFR, ERK1/2 and AKT phosphorylation (Western blot)” value [3] was “most effective in suppression of active EGFR (pY1068) as well as downstream pERK; also recorded: reduces EGFR (L858R/T790M), ERK1/2, and AKT phosphorylation”. For the same compound, the remaining binding at 1 µM (MAP3K2) was 100%, the remaining binding at 1 µM (RIPK4) was 100% and the remaining binding at 1 µM (EPHA2) was 100%. For the same compound, the remaining binding at 1 µM (DYRK1A) was 100%, the remaining binding at 1 µM (MKNK2) was 100% and the remaining binding at 1 µM (PRKCD) was 55%. For the same compound, the remaining binding at 1 µM (PCTK1) was 100%, the remaining binding at 1 µM (ULK3) was 100% and the remaining binding at 1 µM [4] was 98%. For the same compound, the remaining binding at 1 µM (AURKB) was 100%, the remaining binding at 1 µM (CDKL2) was 100% and the remaining binding at 1 µM (PIK3CD) was 71%. It also gave a remaining binding at 1 µM (WNK3) of 78%, a remaining binding at 1 µM (ROCK1) of 100% and a remaining binding at 1 µM (EPHA5) of 100%. The remaining binding at 1 µM (PDPK1) was 84%.
